Measured values reported in patent publication US20240391965A1, “STAPLED ANTIMICROBIAL PEPTIDES (STAMPS) AND USES THEREOF” (Lytica Therapeutics, Inc., priority 2021, published 2024).
≈ marks a conversion by molar mass, not a printed value. Starred links: 1 amine or outer side, 2 acyl side, 3 side chain; linkers in the order of their positions; H or OH if unused. Positions of bridges follow the written chain, without caps; N, C: chain ends. Residues, ends and D or L forms follow the SMILES beside them. 2,2'Bipyridine(5,5'-diCH2) = c1cc(-c2ccc(C[*:2])cn2)ncc1C[*:1]; Biphenyl(4,4'-CH2)2 = c1cc(-c2ccc(C[*:2])cc2)ccc1C[*:1]; Naphthalene(2,6-diCH2) = c1cc2cc(C[*:2])ccc2cc1C[*:1]; pXylylene = c1cc(C[*:2])ccc1C[*:1]

Experiments:
[1] = 48 hours cytotoxicity assay (CellTiter-Glo), liver toxicity; assay type: cell-based, human
From the text: (§1) In some embodiments, a peptide provided herein has hepatic toxicity that is at least 10% (e.g., at least 15%, at least 20%, at least 25%, at least 30%, at least 35%, at least 40%, at least 45%, at least 50%, at least 55%, at least 60%, at least 65%, at least 65%, at least 70%, at least 75%, at least 80%, at least 85%, at least 90%, at least 95%, at least 99%) lower than the hepatic toxicity of the reference. The hepatic toxicity of a peptide can be measured in vitro using a human liver cells (e.g., HepG2) toxicity assay.
(§2) Cell culture: RPTEC were maintained in MEM media supplemented with growth factors. HEPG2 cell line was maintained in Eagle's Minimum Essential Medium (EMEM) supplemented with fetal bovine serum to a final concentration of 10%.
48 hours cytotoxicity assay: Cells were plated in a 96-well format, and after 4 hour incubation to allow attachment, serial dilutions of StAMPs from a 5 mg/mL water stock, or vehicle, were then added to the cells in a final volume of 100 μl. After incubating at 37° C. for 48 hours, 100 μl of CellTiter-Glo® reagent was added to the cells, and the plates were incubated 10 minutes at room temperature. Luminescence was then measured on a microplate reader.
(§3) Renal toxicity was measured after 90 minutes of incubation, while liver toxicity was measured after 48 hours of incubation with StAMPs. N/A=not tested.

[2] = 90 minute cytotoxicity assay (LDH release), renal toxicity; assay type: cell-based
From the text: as §1, with “renal” for “hepatic”, “renal proximal tubule epithelial cell (RPTEC) renal” for “human liver cells (e.g., HepG2)”
as §2
90 minute cytotoxicity assay: Cells were plated in a 96-well format, and after overnight incubation, media was replaced with fresh media. Serial dilutions of StAMPs from a 5 mg/mL water stock, or vehicle, were added to the cells in a final volume of 100 μl. After incubating at 37° C. for 90 min, 50 μl of cell culture media was transferred to a clear 96-well plate, incubated with 50 μl of lactate dehydrogenase (LDH) assay reagent for 10 min, and absorbance measured at 490 nm on a microplate reader.
as §3

[3] = 48 hours of incubation, CellTiter-Glo, read-out: Inhibitory Concentration at 50% Cytotoxicity (IC50) Human Liver Cells (HepG2)

SMILES	IC50 [1]	further results
CC[C@H](C)[C@H](NC(=O)CN)C(=O)N[C@@H](Cc1ccccc1)C(=O)N[C@@H](CO)C(=O)N[C@H]1CSCc2ccc(nc2)-c2ccc(cn2)CSC[C@@H](C(=O)N[C@@H](CC(N)=O)C(=O)N[C@@H](CC(C)C)C(=O)N[C@@H](CC(C)C)C(=O)N[C@H](C(=O)N[C@@H](CO)C(=O)NCC(=O)N[C@@H](CC(C)C)C(=O)N[C@@H](CCCCN)C(=O)NCC(N)=O)[C@@H](C)CC)NC(=O)[C@H]([C@@H](C)CC)NC(=O)[C@H](CCCCN)NC(=O)[C@H](CCCCN)NC(=O)CNC(=O)[C@H](C)NC(=O)[C@H](CC(C)C)NC1=O [compound 60] (H-GIFSCLAGKKICNLLISGLKG-NH2; linker 5-12 via 2,2'Bipyridine(5,5'-diCH2))	–	IC50 [1, 3]: 29 µg/mL (≈ 12.5 µM)
CC[C@H](C)[C@H](NC(=O)CN)C(=O)N[C@@H](Cc1ccccc1)C(=O)N[C@@H](CO)C(=O)N[C@H]1CSCc2ccc(cc2)-c2ccc(cc2)CSC[C@@H](C(=O)N[C@@H](CC(N)=O)C(=O)N[C@@H](CC(C)C)C(=O)N[C@@H](CC(C)C)C(=O)N[C@H](C(=O)N[C@@H](CO)C(=O)NCC(=O)N[C@@H](CC(C)C)C(=O)N[C@@H](CCCCN)C(=O)NCC(N)=O)[C@@H](C)CC)NC(=O)[C@H]([C@@H](C)CC)NC(=O)[C@H](CCCCN)NC(=O)[C@H](CCCCN)NC(=O)CNC(=O)[C@H](C)NC(=O)[C@H](CC(C)C)NC1=O [compound 61] (H-GIFSCLAGKKICNLLISGLKG-NH2; linker 5-12 via Biphenyl(4,4'-CH2)2; N-terminus assumed)	> 200 µg/mL	–
CC[C@H](C)[C@H](NC(=O)CN)C(=O)N[C@@H](Cc1ccccc1)C(=O)N[C@@H](CO)C(=O)N[C@H]1CSCc2ccc3cc(ccc3c2)CSC[C@@H](C(=O)N[C@@H](CC(N)=O)C(=O)N[C@@H](CC(C)C)C(=O)N[C@@H](CC(C)C)C(=O)N[C@H](C(=O)N[C@@H](CO)C(=O)NCC(=O)N[C@@H](CC(C)C)C(=O)N[C@@H](CCCCN)C(=O)NCC(N)=O)[C@@H](C)CC)NC(=O)[C@H]([C@@H](C)CC)NC(=O)[C@H](CCCCN)NC(=O)[C@H](CCCCN)NC(=O)CNC(=O)[C@H](C)NC(=O)[C@H](CC(C)C)NC1=O [compound 62] (H-GIFSCLAGKKICNLLISGLKG-NH2; linker 5-12 via Naphthalene(2,6-diCH2))	–	IC50 [1, 3]: 81 µg/mL (≈ 35.4 µM)
CC[C@H](C)[C@H](NC(=O)CN)C(=O)N[C@@H](Cc1ccccc1)C(=O)N[C@@H](CO)C(=O)N[C@@H](CCCCN)C(=O)N[C@H]1CSCc2ccc(nc2)-c2ccc(cn2)CSC[C@@H](C(=O)N[C@@H](CC(C)C)C(=O)N[C@@H](CC(C)C)C(=O)N[C@H](C(=O)N[C@@H](CO)C(=O)NCC(=O)N[C@@H](CC(C)C)C(=O)N[C@@H](CCCCN)C(=O)NCC(N)=O)[C@@H](C)CC)NC(=O)[C@H](CCCCN)NC(=O)[C@H]([C@@H](C)CC)NC(=O)[C@H](CCCCN)NC(=O)[C@H](CCCCN)NC(=O)CNC(=O)[C@H](C)NC1=O [compound 63] (H-GIFSKCAGKKIKCLLISGLKG-NH2; linker 6-13 via 2,2'Bipyridine(5,5'-diCH2))	–	IC50 [1, 3]: 44 µg/mL (≈ 18.8 µM)
CC[C@H](C)[C@H](NC(=O)CN)C(=O)N[C@@H](Cc1ccccc1)C(=O)N[C@@H](CO)C(=O)N[C@@H](CCCCN)C(=O)N[C@@H](CC(C)C)C(=O)N[C@@H](C)C(=O)N[C@H]1CSCc2ccc(cc2)-c2ccc(cc2)CSC[C@@H](C(=O)N[C@H](C(=O)N[C@@H](CO)C(=O)NCC(=O)N[C@@H](CC(C)C)C(=O)N[C@@H](CCCCN)C(=O)NCC(N)=O)[C@@H](C)CC)NC(=O)[C@H](CC(C)C)NC(=O)[C@H](CC(N)=O)NC(=O)[C@H](CCCCN)NC(=O)[C@H]([C@@H](C)CC)NC(=O)[C@H](CCCCN)NC(=O)[C@H](CCCCN)NC1=O [compound 68] (H-GIFSKLACKKIKNLCISGLKG-NH2; linker 8-15 via Biphenyl(4,4'-CH2)2; N-terminus assumed)	8 µg/mL (≈ 3.33 µM)	–
CC[C@H](C)[C@H](NC(=O)CN)C(=O)N[C@@H](Cc1ccccc1)C(=O)N[C@@H](CO)C(=O)N[C@@H](CCCCN)C(=O)N[C@@H](CC(C)C)C(=O)N[C@@H](C)C(=O)NCC(=O)N[C@H]1CSCc2ccc(cc2)-c2ccc(cc2)CSC[C@@H](C(=O)N[C@@H](CO)C(=O)NCC(=O)N[C@@H](CC(C)C)C(=O)N[C@@H](CCCCN)C(=O)NCC(N)=O)NC(=O)[C@H](CC(C)C)NC(=O)[C@H](CC(C)C)NC(=O)[C@H](CC(N)=O)NC(=O)[C@H](CCCCN)NC(=O)[C@H]([C@@H](C)CC)NC(=O)[C@H](CCCCN)NC1=O [compound 70] (H-GIFSKLAGCKIKNLLCSGLKG-NH2; linker 9-16 via Biphenyl(4,4'-CH2)2; N-terminus assumed)	23 µg/mL (≈ 9.88 µM)	–
CC[C@H](C)[C@H](NC(=O)CN)C(=O)N[C@@H](Cc1ccccc1)C(=O)N[C@@H](CO)C(=O)N[C@@H](CCCCN)C(=O)N[C@@H](CC(C)C)C(=O)N[C@@H](C)C(=O)NCC(=O)N[C@@H](CCCCN)C(=O)N[C@H]1CSCc2ccc(cc2)-c2ccc(cc2)CSC[C@@H](C(=O)NCC(=O)N[C@@H](CC(C)C)C(=O)N[C@@H](CCCCN)C(=O)NCC(N)=O)NC(=O)[C@H]([C@@H](C)CC)NC(=O)[C@H](CC(C)C)NC(=O)[C@H](CC(C)C)NC(=O)[C@H](CC(N)=O)NC(=O)[C@H](CCCCN)NC(=O)[C@H]([C@@H](C)CC)NC1=O [compound 74] (H-GIFSKLAGKCIKNLLICGLKG-NH2; linker 10-17 via Biphenyl(4,4'-CH2)2; N-terminus assumed)	–	IC50 [2]: 4 µg/mL (≈ 1.7 µM)
CC[C@H](C)[C@H](NC(=O)CN)C(=O)N[C@@H](Cc1ccccc1)C(=O)N[C@@H](CO)C(=O)N[C@@H](CCCCN)C(=O)N[C@@H](CC(C)C)C(=O)N[C@@H](C)C(=O)NCC(=O)N[C@@H](CCCCN)C(=O)N[C@@H](CCCCN)C(=O)N[C@H]1CSCc2ccc(cc2)-c2ccc(cc2)CSC[C@@H](C(=O)N[C@@H](CC(C)C)C(=O)N[C@@H](CCCCN)C(=O)NCC(N)=O)NC(=O)[C@H](CO)NC(=O)[C@H]([C@@H](C)CC)NC(=O)[C@H](CC(C)C)NC(=O)[C@H](CC(C)C)NC(=O)[C@H](CC(N)=O)NC(=O)[C@H](CCCCN)NC1=O [compound 76] (H-GIFSKLAGKKCKNLLISCLKG-NH2; linker 11-18 via Biphenyl(4,4'-CH2)2; N-terminus assumed)	23 µg/mL (≈ 9.59 µM)	–
CC[C@H](C)[C@H](NC(=O)CN)C(=O)N[C@@H](Cc1ccccc1)C(=O)N[C@@H](CO)C(=O)N[C@@H](CCCCN)C(=O)N[C@@H](CC(C)C)C(=O)N[C@@H](C)C(=O)NCC(=O)N[C@@H](CCCCN)C(=O)N[C@@H](CCCCN)C(=O)N[C@H](C(=O)N[C@H]1CSCc2ccc(cc2)-c2ccc(cc2)CSC[C@@H](C(=O)N[C@@H](CCCCN)C(=O)NCC(N)=O)NC(=O)CNC(=O)[C@H](CO)NC(=O)[C@H]([C@@H](C)CC)NC(=O)[C@H](CC(C)C)NC(=O)[C@H](CC(C)C)NC(=O)[C@H](CC(N)=O)NC1=O)[C@@H](C)CC [compound 79] (H-GIFSKLAGKKICNLLISGCKG-NH2; linker 12-19 via Biphenyl(4,4'-CH2)2; N-terminus assumed)	50 µg/mL (≈ 21.5 µM)	–
CC[C@H](C)[C@H](NC(=O)CN)C(=O)N[C@@H](Cc1ccccc1)C(=O)N[C@@H](CO)C(=O)N[C@@H](CCCCN)C(=O)N[C@@H](CC(C)C)C(=O)N[C@@H](C)C(=O)NCC(=O)N[C@@H](CCCCN)C(=O)N[C@@H](CCCCN)C(=O)N[C@H](C(=O)N[C@@H](CCCCN)C(=O)N[C@@H](CC(N)=O)C(=O)N[C@H]1CSCc2ccc(cc2)-c2ccc(cc2)CSC[C@@H](C(N)=O)NC(=O)[C@H](CCCCN)NC(=O)[C@H](CC(C)C)NC(=O)CNC(=O)[C@H](CO)NC(=O)[C@H]([C@@H](C)CC)NC(=O)[C@H](CC(C)C)NC1=O)[C@@H](C)CC [compound 86] (H-GIFSKLAGKKIKNCLISGLKC-NH2; linker 14-21 via Biphenyl(4,4'-CH2)2; N-terminus assumed)	9 µg/mL (≈ 3.75 µM)	–
CC[C@H](C)[C@H](NC(=O)CN)C(=O)N[C@@H](Cc1ccccc1)C(=O)N[C@@H](CO)C(=O)N[C@@H](CCCCN)C(=O)N[C@@H](CC(C)C)C(=O)N[C@H]1CSCc2ccc(cc2)CSC[C@@H](C(=O)N[C@@H](CCCCN)C(=O)N[C@@H](CC(N)=O)C(=O)N[C@@H](CC(C)C)C(=O)N[C@@H](CC(C)C)C(=O)N[C@H](C(=O)N[C@H]2CSCc3ccc(cc3)CSC[C@@H](C(N)=O)NC(=O)[C@H](CCCCN)NC(=O)[C@H](CC(C)C)NC(=O)CNC2=O)[C@@H](C)CC)NC(=O)[C@H](CCCCN)NC(=O)[C@H](CCCCN)NC(=O)CNC1=O [compound 90] (H-GIFSKLCGKKCKNLLICGLKC-NH2; linker 7-11, 17-21 via pXylylene; N-terminus assumed)	–	IC50 ([2]; 90 minutes of incubation, LDH release, read-out: Inhibitory Concentration at 50% Cytotoxicity (IC50) Human Renal Proximal Tubule Epithelial Cells (RPTEC)): > 200 µg/mL
